From patent US20260184693A1, “INHIBITORS OF SOLUTE CARRIER FAMILY 6A MEMBER 19 (SLC6A19) AND METHODS OF USE THEREOF” (Maze Therapeutics, Inc., priority 2022, published 2026)

Legend:
human SLC6A19 [1] = target: T1, human SLC6A19 (Homo sapiens, UniProt Q695T7); assay: Example B-1: L-[3H]leucine uptake, liquid scintillation, in CHO cells with doxycycline-inducible expression of human SLC6A19 and TMEM27; format: cell-based; settings: read-out: SLC6A19_Radioligand Uptake Assay IC50
T1 construct: expressed in transfected cells
T1 sequence (Q695T7 1-634): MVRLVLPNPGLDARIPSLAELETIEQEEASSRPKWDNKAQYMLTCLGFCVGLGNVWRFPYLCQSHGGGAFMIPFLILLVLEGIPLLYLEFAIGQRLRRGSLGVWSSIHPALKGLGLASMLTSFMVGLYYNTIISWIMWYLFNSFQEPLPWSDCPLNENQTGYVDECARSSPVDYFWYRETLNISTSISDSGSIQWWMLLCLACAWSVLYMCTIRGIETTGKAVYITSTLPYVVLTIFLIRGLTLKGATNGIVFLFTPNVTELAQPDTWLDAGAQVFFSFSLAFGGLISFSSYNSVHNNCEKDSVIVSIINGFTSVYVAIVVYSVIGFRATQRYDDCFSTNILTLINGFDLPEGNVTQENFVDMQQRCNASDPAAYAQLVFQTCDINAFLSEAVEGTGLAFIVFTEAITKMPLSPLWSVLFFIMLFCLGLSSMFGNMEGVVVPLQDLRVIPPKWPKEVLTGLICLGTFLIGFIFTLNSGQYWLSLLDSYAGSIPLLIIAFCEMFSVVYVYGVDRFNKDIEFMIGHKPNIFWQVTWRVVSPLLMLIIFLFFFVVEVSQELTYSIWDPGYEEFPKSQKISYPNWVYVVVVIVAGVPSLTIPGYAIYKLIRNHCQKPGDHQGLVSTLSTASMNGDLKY
T1 sequence (Q9HBJ8 15-222 partner): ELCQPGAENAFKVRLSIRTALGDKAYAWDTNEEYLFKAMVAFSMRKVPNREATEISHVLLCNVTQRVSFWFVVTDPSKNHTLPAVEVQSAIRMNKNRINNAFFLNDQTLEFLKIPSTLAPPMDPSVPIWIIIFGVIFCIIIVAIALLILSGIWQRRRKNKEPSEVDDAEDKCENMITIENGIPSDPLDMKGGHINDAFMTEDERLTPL
Protocol: CHO cells with doxycycline-inducible expression of human SLC6A19 and TMEM27 were maintained in T150 cell culture treated flasks using cell culture media, which consisted of 1×DMEM/F12 (Gibco, 11330057), 10% Tet System-Approved FBS (Gibco, A4736401), 100 U/mL Penicillin-Streptomycin (Gibco, 15140122), 1×GlutaMAX™ Supplement (Gibco, 35050061), 1 mM Sodium Pyruvate (Gibco, 11360070), 1.1 mg/mL Sodium Bicarbonate (Gibco, 25080094), 5 μg/mL Blasticidin (InvivoGen, ant-bl-1), 150 μg/mL Hygromycin B Gold (InvivoGen, ant-hg-5), and 500 μg/mL G418 (Sigma-Aldrich, G8168-100 mL). In preparation for the assay, this media was aspirated and 5 mL of TryμLE™ Express Enzyme (Gibco, 12605010) was added to each flask to initiate cell dissociation. The flasks were then incubated (humidified, 37° C. with 5% CO2) for 2 minutes. After incubation, 10 mL of pre-warmed cell culture media was added to each flask. The cell suspension was collected and centrifuged for 5 minutes at 200xg.
The supernatant was aspirated and the pellet was resuspended in 5 mL pre-warmed cell culture media. The resuspended cells were counted using the Countess Cell Counting Chamber (Invitrogen) and the cell concentration of the suspension was readjusted to 1 million live cells/mL using pre-warmed cell culture media. 25 uL/well (25,000 cells/well) of readjusted cell suspension was dispensed into Poly-D-Lysine 384-well white/clear plates (Corning, 354660) using a MultiDrop Combi (Thermo Electron Corp). To induce expression of Human SLC6A19 and TMEM27, 25 uL/well of cell culture media containing 2 μg/mL doxycycline was added to the first 23 columns of each plate resulting in a final concentration of […] doxycycline. 25 μL/well of cell culture media was added to the last column of each plate, to act as negative control wells for Human SLC6A19 and TMEM27 expression. Assay plates were then incubated (humidified, 37° C. with 5% CO2) for 18 hours. After incubation, the media was aspirated and the wells were washed 4 times with pre-warmed HBSS (Sigma-Aldrich, H8264-1L) using an Apricot S-Pipette S2 (Apricot Designs), such that 5 uL/well HBSS was remaining at the end of each wash. […] At this step, the final in-well DMSO concentration in the assay plate is 0.5%. All compounds were plated in a duplicate 8-point dilution series that consisted of 3-fold dilutions. […] Afterwards, 15 uL/well of 3.2 mM hot:cold leucine solution (1:15000 ratio of L-[3,4,5-3H(N)] Leucine (Perkin Elmer, NET460001MC) to L-Leucine (Sigma-Aldrich, L8912-25G) diluted with HBSS (Sigma-Aldrich, H8264-1L)) was added using the Viaflo 384 (Integra), for a final concentration of 1.6 mM hot:cold leucine solution. The plates were then incubated (humidified, 37° C. with 5% CO2) for 20 minutes to conduct the uptake reaction. Immediately after the incubation, the plates were washed 4 times with HBSS (Sigma-Aldrich, H8264-1L) using the ELx405 Microplate Washer (Biotek) to terminate the uptake reaction. After the washes, 50 uL/well Ultima Gold Scintillation Cocktail (Perkin Elmer, 6013326) was added to each well using the Viaflo 384 (Integra). The plates were then incubated (humidified, 37° C. with 5% CO2) on a plate shaker at 200 rpm for 2 hours. After incubation, the plates were removed from the shaker and kept at room temperature for 15 minutes.
Liquid scintillation analysis was performed using the MicroBeta2 Microplate Counter (Perkin Elmer). Activity (%) was derived by normalizing the average of positive control compound treated wells to 0% and the average of DMSO (negative control) wells to 100%. Collaborative Drug Discovery software was used for graphing data.

human SLC6A19 [2] = target: T1, human SLC6A19; assay: Example B2: 13C6,15N-isoleucine uptake, RapidFire mass spectrometry, in CHO cells with doxycycline-inducible expression of human SLC6A19 and TMEM27; format: cell-based; settings: read-out: SLC6A19_RapidFire Uptake Assay IC50
Procedure, shortened: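 Labelled isoleucine (13C6,15N; 2 mM added) was given 20 min at 37 °C, following a 20-min compound pre-treatment (10-point 2-fold series, duplicate). Cells were doxycycline-induced CHO co-expressing human SLC6A19 and TMEM27. Intracellular label was quantified by RapidFire-MS peak areas against a 13C-leucine standard.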

Compound | IC50 (human SLC6A19 [1]) | IC50 (human SLC6A19 [2])
CC(=O)N1CC[C@@H](C)[C@@H](N(C)C(=O)NCc2cc3cc(Cl)ccc3[nH]2)C1 (racemic) [Compound 203, 1-((3R,4R and 3S,4S)-1-acetyl-4-methylpiperidin-3-yl)-3-((5-chloro-1H-indol-2-yl)methyl)-1-methylurea] | 2170 nM | 4870 nM
CC(=O)N1C[C@@H](C)C[C@@H](N(C)C(=O)NCc2cc3cc(Cl)ccc3[nH]2)C1 (racemic) [Compound 243, 1-((3R,5S and 3S,5R)-1-acetyl-5-methylpiperidin-3-yl)-3-((5-chloro-1H-indol-2-yl)methyl)-1-methylurea] | 262 nM | 153 nM
CC(=O)N1C[C@@H](N(C)C(=O)NCc2cc3cc(Cl)ccc3[nH]2)CC[C@H]1C (single isomer, unassigned) [Compound 193, 1-((3S,6R or 3R,6S)-1-acetyl-6-methylpiperidin-3-yl)-3-((5-chloro-1H-indol-2-yl)methyl)-1-methylurea] | > 50000 nM | > 50000 nM
CC(=O)N1CCC[C@@H](N(C)C(=O)NCc2cc3cc(Cl)c(OCc4cc(C)on4)cc3[nH]2)C1 [Compound 135, (R)-1-(1-acetylpiperidin-3-yl)-3-((5-chloro-6-((5-methylisoxazol-3-yl)methoxy)-1H-indol-2-yl)methyl)-1-methylurea] | 162 nM | 326 nM
CCN(C(=O)NCc1cc2cc(Cl)c(OCc3ccon3)cc2[nH]1)[C@@H]1CCCN(C(C)=O)C1 [Compound 137, (R)-1-(1-acetylpiperidin-3-yl)-3-((5-chloro-6-(isoxazol-3-ylmethoxy)-1H-indol-2-yl)methyl)-1-ethylurea] | 359 nM | 273 nM
CCN(C(=O)NCc1cc2cc(Cl)ccc2[nH]1)[C@@H]1CCCN(C(C)=O)C1 [Compound 163, (R)-1-(1-acetylpiperidin-3-yl)-3-((5-chloro-1H-indol-2-yl)methyl)-1-ethylurea] | 145 nM | 49.4 nM
CC(=O)N1CCC[C@@H](N(C)C(=O)NCc2cc3cc(C(F)(F)F)ccc3[nH]2)C1 [Compound 212, (R)-1-(1-acetylpiperidin-3-yl)-1-methyl-3-((5-(trifluoromethyl)-1H-indol-2-yl)methyl)urea] | 259 nM | –
CC(=O)N1CCC[C@@H](N(C)C(=O)NCc2cc3ccc(C)cc3[nH]2)C1 [Compound 214, (R)-1-(1-acetylpiperidin-3-yl)-1-methyl-3-((6-methyl-1H-indol-2-yl)methyl)urea] | 1290 nM | –

Now from value to compound:

IC50 (human SLC6A19 [1]) | IC50 (human SLC6A19 [2]) | Compound
629 nM | 839 nM | CN(C(=O)NCc1cc2cc(Cl)ccc2[nH]1)[C@@H]1CCCN(C(=O)C2CC(O)C2)C1 (stereo partly drawn) [Compound 119, (R)-3-((5-chloro-1H-indol-2-yl)methyl)-1-(1-(3-hydroxycyclobutane-1-carbonyl)piperidin-3-yl)-1-methylurea]
574 nM | 949 nM | CN(C(=O)NCc1cc2cc(Cl)ccc2[nH]1)[C@@H]1CCCN(C(=O)CC2CCC2)C1 [Compound 120, (R)-3-((5-chloro-1H-indol-2-yl)methyl)-1-(1-(2-cyclobutylacetyl)piperidin-3-yl)-1-methylurea]
280 nM | 405 nM | CN(C(=O)NCc1cc2cc(Cl)ccc2[nH]1)[C@@H]1CCCN(C(=O)C2CC(CO)C2)C1 (stereo partly drawn) [Compound 121, (R)-3-((5-chloro-1H-indol-2-yl)methyl)-1-(1-(3-(hydroxymethyl)cyclobutane-1-carbonyl)piperidin-3-yl)-1-methylurea]
183 nM | 195 nM | CC(=O)N1CCC[C@@H](N(C)C(=O)NCc2cc3cc(Cl)ccc3[nH]2)C1 [Compound 147, (R)-1-(1-acetylpiperidin-3-yl)-3-((5-chloro-1H-indol-2-yl)methyl)-1-methylurea]
418 nM | – | CN(C)C(=O)N1CCC[C@@H](N(C)C(=O)NCc2cc3cc(Cl)ccc3[nH]2)C1 [Compound 208, (R)-3-(3-((5-chloro-1H-indol-2-yl)methyl)-1-methylureido)-N,N-dimethylpiperidine-1-carboxamide]
126 nM | – | CCNC(=O)N1CCC[C@@H](N(C)C(=O)NCc2cc3cc(Cl)ccc3[nH]2)C1 [Compound 209, (R)-3-(3-((5-chloro-1H-indol-2-yl)methyl)-1-methylureido)-N-ethylpiperidine-1-carboxamide]
892 nM | – | CN(C(=O)NCc1cc2cc(Cl)ccc2[nH]1)[C@@H]1CCCN(C(=O)NCC(F)(F)F)C1 [Compound 210, (R)-3-(3-((5-chloro-1H-indol-2-yl)methyl)-1-methylureido)-N-(2,2,2-trifluoroethyl)piperidine-1-carboxamide]
1360 nM | – | CN(C(=O)NCc1cc2cc(Cl)ccc2[nH]1)[C@@H]1CCCN(C(=O)NC2CCC2)C1 [Compound 211, (R)-3-(3-((5-chloro-1H-indol-2-yl)methyl)-1-methylureido)-N-cyclobutylpiperidine-1-carboxamide]
804 nM | – | CC(C)NC(=O)N1CCC[C@@H](N(C)C(=O)NCc2cc3cc(Cl)ccc3[nH]2)C1 [Compound 213, (R)-3-(3-((5-chloro-1H-indol-2-yl)methyl)-1-methylureido)-N-isopropylpiperidine-1-carboxamide]
637 nM | – | CN(C(=O)NCc1cc2cc(Cl)ccc2[nH]1)[C@@H]1CCCN(C(=O)CCO)C1 [Compound 215, (R)-3-((5-chloro-1H-indol-2-yl)methyl)-1-(1-(3-hydroxypropanoyl)piperidin-3-yl)-1-methylurea]
807 nM | – | CN(C(=O)NCc1cc2cc(Cl)ccc2[nH]1)[C@@H]1CCCN(C(=O)N2CC(F)(F)C2)C1 [Compound 216, (R)-3-((5-chloro-1H-indol-2-yl)methyl)-1-(1-(3,3-difluoroazetidine-1-carbonyl)piperidin-3-yl)-1-methylurea]
1160 nM | – | CN(C(=O)NCc1cc2cc(Cl)ccc2[nH]1)[C@@H]1CCCN(C(=O)Cc2cnoc2)C1 [Compound 246, (R)-3-((5-chloro-1H-indol-2-yl)methyl)-1-(1-(2-(isoxazol-4-yl)acetyl)piperidin-3-yl)-1-methylurea]
